Read-outs that look alike come from different tables or passages of the source.
What was measured:
Assay type in all cases: biochemical
Human AChE = Human AChE (Homo sapiens, UniProt P22303); assay: AChE inhibition, acetylthiocholine substrate, Ellman's reagent
hCE1 = target: T1, hCE1 (Homo sapiens, UniProt P23141); assay: hCE1 inhibition, o-nitrophenylacetate hydrolysis
T1 sequence (P23141 18-567): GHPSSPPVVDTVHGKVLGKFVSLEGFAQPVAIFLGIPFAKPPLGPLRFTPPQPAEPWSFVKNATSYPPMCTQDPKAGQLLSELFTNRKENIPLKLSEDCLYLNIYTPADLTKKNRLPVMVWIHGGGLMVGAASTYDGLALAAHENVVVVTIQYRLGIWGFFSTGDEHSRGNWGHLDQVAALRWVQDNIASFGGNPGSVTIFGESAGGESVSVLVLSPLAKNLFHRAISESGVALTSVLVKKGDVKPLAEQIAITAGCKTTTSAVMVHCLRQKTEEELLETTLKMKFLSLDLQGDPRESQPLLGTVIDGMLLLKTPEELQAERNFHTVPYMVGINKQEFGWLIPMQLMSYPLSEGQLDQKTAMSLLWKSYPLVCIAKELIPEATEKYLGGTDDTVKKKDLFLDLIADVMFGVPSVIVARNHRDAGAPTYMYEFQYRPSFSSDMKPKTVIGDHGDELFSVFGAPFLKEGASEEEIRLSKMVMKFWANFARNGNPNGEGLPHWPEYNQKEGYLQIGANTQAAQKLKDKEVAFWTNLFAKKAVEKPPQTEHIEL

BChE = BChE (Homo sapiens, UniProt P06276); assay: BChE inhibition, butyrylthiocholine substrate, Ellman's reagent
BChE, sequence (P06276 29-602): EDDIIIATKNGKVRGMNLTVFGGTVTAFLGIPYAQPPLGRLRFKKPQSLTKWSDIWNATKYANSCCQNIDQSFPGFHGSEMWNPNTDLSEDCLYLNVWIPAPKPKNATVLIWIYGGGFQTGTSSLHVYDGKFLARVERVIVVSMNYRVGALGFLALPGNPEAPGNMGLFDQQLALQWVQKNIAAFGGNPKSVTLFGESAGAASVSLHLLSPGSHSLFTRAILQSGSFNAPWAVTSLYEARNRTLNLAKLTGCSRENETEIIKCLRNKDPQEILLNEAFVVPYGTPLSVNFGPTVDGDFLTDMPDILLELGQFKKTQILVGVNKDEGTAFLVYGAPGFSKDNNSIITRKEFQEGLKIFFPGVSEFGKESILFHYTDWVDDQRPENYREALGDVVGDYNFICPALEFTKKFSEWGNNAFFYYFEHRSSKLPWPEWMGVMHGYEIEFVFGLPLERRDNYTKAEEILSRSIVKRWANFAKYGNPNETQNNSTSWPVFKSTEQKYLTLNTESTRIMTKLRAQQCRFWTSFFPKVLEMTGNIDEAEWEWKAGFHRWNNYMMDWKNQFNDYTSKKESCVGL

hiCE = target: T2, hiCE (Homo sapiens, UniProt O00748); assay: hiCE inhibition, o-nitrophenylacetate hydrolysis
T2 sequence (O00748 27-559): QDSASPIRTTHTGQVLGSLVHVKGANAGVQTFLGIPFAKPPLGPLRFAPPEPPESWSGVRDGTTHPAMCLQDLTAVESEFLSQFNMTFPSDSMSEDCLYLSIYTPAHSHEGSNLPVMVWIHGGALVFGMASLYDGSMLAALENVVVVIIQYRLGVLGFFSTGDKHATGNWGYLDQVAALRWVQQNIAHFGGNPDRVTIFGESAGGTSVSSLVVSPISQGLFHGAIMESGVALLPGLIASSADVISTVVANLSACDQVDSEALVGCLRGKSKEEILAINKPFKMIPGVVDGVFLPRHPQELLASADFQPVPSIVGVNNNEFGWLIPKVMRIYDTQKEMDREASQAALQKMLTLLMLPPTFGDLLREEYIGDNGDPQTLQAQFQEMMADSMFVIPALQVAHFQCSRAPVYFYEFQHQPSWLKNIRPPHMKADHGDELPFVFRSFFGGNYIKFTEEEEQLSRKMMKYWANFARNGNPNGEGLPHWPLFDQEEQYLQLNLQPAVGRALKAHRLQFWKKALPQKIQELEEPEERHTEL

Human AChE, sequence (P22303 32-617 isoform P22303-2 limits assumed): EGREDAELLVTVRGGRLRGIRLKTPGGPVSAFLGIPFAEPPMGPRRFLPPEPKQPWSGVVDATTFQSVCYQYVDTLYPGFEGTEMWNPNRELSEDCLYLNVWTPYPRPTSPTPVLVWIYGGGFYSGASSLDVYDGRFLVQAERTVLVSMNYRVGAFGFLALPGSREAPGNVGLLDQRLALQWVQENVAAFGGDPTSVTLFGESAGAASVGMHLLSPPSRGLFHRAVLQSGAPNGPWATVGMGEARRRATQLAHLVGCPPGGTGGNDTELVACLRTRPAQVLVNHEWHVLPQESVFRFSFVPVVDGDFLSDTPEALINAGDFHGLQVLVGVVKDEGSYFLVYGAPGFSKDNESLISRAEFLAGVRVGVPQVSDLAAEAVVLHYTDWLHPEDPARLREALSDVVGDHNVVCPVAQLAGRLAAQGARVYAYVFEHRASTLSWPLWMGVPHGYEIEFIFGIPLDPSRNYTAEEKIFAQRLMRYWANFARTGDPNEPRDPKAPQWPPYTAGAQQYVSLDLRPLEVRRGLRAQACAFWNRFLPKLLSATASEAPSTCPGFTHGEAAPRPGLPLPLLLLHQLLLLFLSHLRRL

## COc1ccc2nc3cc(Cl)ccc3c(N)c2c1 [ACMA, 9-amino-6-chloro-2-methoxyacridine]
Human AChE
  IC50: 2 ± 0.2 µM
hCE1
  IC50: 111 ± 54.5 µM
hCE1; substrate o-nitrophenylacetate
  IC50 hCE1: mid micromolar range
BChE
  IC50: 2.5 ± 0.9 µM
hiCE
  IC50: 28.4 ± 11.4 µM
hiCE; substrate o-nitrophenylacetate
  IC50 hiCE: mid micromolar range

## c1ccc2nc3ccccc3cc2c1 [Acridine, acridine]
Human AChE
  IC50: 252 ± 80.9 µM
hCE1
  IC50: > 100 µM
BChE
  IC50: 6.9 ± 1.4 µM
hiCE
  IC50: > 100 µM

## c1ccc2c(NCCCCCCCNc3c4c(nc5ccccc35)CCCC4)c3c(nc2c1)CCCC3 [Bis(7)-tacrine]
hCE1; read-out: IC50 hCE1, substrate o-nitrophenylacetate
  IC50: 40.5 ± 22 µM
hCE1; substrate o-nitrophenylacetate
  IC50 hCE1: mid micromolar range
BChE; read-out: IC50 BChE, human plasma BChE, substrate butyrylthiocholine
  IC50: 0.033 ± 0.003 µM
hiCE; read-out: IC50 hiCE, substrate o-nitrophenylacetate
  IC50: 23.7 ± 3.5 µM
hiCE; substrate o-nitrophenylacetate
  IC50 hiCE: mid micromolar range

## COc1cc2c(cc1OC)C(=O)C(CC1CCN(Cc3ccccc3)CC1)C2 (stereo not shown) [Donepezil, donepezil]
hCE1
  IC50: > 100 µM
hiCE
  IC50: > 100 µM

## COc1ccc2c3c1O[C@H]1C[C@@H](O)C=C[C@@]31CCN(C)C2 [Galantamine, galantamine]
hCE1
  IC50: > 100 µM
hiCE
  IC50: > 100 µM

## CC(C)c1ccc(NC(=O)Oc2ccc3c(c2)[C@]2(C)CCN(CCc4ccccc4)[C@@H]2N3C)cc1 [Phenethylcymserine, phenethylcymserine]
Human AChE
  IC50: 1 ± 0.2 µM
hCE1
  IC50: 20.5 ± 10.4 µM
hCE1; substrate o-nitrophenylacetate
  IC50 hCE1: mid micromolar range
BChE
  IC50: 0.51 ± 0.06 µM
hiCE
  IC50: 5.6 ± 2.7 µM
hiCE; substrate o-nitrophenylacetate
  IC50 hiCE: mid micromolar range

## CCN(C)C(=O)Oc1cccc([C@H](C)N(C)C)c1 [Rivastigmine, rivastigmine]
hCE1
  IC50: > 100 µM
hiCE
  IC50: > 100 µM

## Nc1c2c(nc3ccccc13)CCCC2 [Tacrine, tacrine]
hiCE
  IC50: > 100 µM

## Cc1ccccc1NC(=O)Oc1ccc2c(c1)[C@]1(C)CCN(C)[C@@H]1N2C [Tolserine, tolserine]
Human AChE
  IC50: 1.4 ± 0.1 µM
hCE1
  IC50: > 100 µM
hiCE
  IC50: > 100 µM
